According to patent publication US10656158B2, “Identification of enzyme activity through determination of its localization” (International Business Machines Corporation, priority 2014, dated 2020):

Biological target: T1, MurA enzyme (Bacillus subtilis, UniProt P70965)
T1 construct: expressed in transfected cells
Experiment: MurA-CFP enzyme localization (condensation) by fluorescence imaging in B. subtilis cells
Format: cell-based
Conditions: for state of MurA-CFP enzyme in the cell (localized or diffuse): exposure during exponential growth, 5 mM fosfomycin or 0.5 μg ml^−1 vancomycin, fluorescence imaging, 30° C.
Experimental: Enzymatic activity of the MurA enzyme in Bacillus subtilis was measured in the presence of enzyme condensation modulating agents. MurA enzyme is involved in an enzymatic biosynthetic pathway that catalyzes a biosynthetic precursor of peptidoglycan, a polymer of the cell wall. The agents that were assessed for effects on MurA were antibiotics fosfomycin and vancomycin.
The B. subtilis cells were cultivated to express a MurA-CFP conjugate protein (MurA-cyan fluorescent protein) under its natural promoter. After one hour in exponential growth, 1 ml of cell culture was centrifuged. The supernatant was collected and added to 2 ml of melted […] agarose solution in LB. The resulting 1.2% solution of molten agar/culture supernatant was supplemented with 0.5 μg ml^−1 FM 4-64 dye (N-(3-triethylammoniumpropyl)-4-(6-(4-(diethylamino) phenyl) hexatrienyl) pyridinium dibromide). Then 5 mM fosfomycin or 0.5 μg ml^−1 vancomycin was added to the well of a culture slide (wells 18 mm diameter×1.75 mm depth) and covered with a glass slide.
After cooling, the cover glass was removed and two air pockets were cut out of the agarose with a 15 ml tube, leaving a 3-5 mm agar bridge in the center of the well. Seven microliters of the remaining culture was spread over the agar, partially dried and sealed with cover glass. After cooling, the slide was removed and two air pockets were cut out of the agar leaving a 3-5 mm agar bridge in the center of the well. Cells were suspended in LB with FM4-64 dye (0.5 μg ml^−1) and were added at the agar bridge and covered by a glass coverslip. To prevent drying during the experiment, 50% glycerol was applied to the region of contact between the slide and the coverslip.
The slide was equilibrated in an environmentally controlled chamber at 30° C. (Precision Control Weather Station) for at least 10 min prior to visualization. […] After 2 hours of imaging, MurA-CFP expressing cells stopped growing, but the condensation of the enzyme could be detected by a bright fluorescent spot.

T1 sequence (P70965 whole entry): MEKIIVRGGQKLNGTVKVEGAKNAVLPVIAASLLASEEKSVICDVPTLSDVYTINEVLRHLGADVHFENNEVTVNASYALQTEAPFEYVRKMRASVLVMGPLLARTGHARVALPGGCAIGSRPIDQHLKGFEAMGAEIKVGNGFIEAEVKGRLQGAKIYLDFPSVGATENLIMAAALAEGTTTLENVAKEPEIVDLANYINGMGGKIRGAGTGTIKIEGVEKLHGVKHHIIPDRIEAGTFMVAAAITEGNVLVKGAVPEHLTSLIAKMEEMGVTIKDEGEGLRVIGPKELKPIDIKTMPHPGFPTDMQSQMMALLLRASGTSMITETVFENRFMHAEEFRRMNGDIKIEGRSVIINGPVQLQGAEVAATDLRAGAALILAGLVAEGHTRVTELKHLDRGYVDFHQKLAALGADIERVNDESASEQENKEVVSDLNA

| SMILES | areas of localized MurA-CFP (added to the cells during stationary growth before MurA began to localize (not shown)) | state of MurA-CFP enzyme in the cell (localized or diffuse) |
| --- | --- | --- |
| C[C@@H]1O[C@@H]1P(=O)(O)O [Fosfomycin, fosfomycin] | not observed | localized |
| CN[C@H](CC(C)C)C(=O)N[C@H]1C(=O)N[C@@H](CC(N)=O)C(=O)N[C@H]2C(=O)N[C@H]3C(=O)N[C@H](C(=O)N[C@H](C(=O)O)c4cc(O)cc(O)c4-c4cc3ccc4O)[C@H](O)c3ccc(c(Cl)c3)Oc3cc2cc(c3O[C@@H]2O[C@H](CO)[C@@H](O)[C@H](O)[C@H]2O[C@H]2C[C@](C)(N)[C@H](O)[C@H](C)O2)Oc2ccc(cc2Cl)[C@H]1O [Vancomycin, vancomycin] |  | diffuse |
